Measurements as given in patent US20170168056A1, “METHODS AND COMPOSITIONS FOR DETECTING AND MODULATING CANCER CELLS” (Massachusetts Institute of Technology, priority 2015, published 2017).

Legend:
[1] = tested on: MDA-MB-231 xenograft tumors; assay: Ki67 and cleaved caspase-3 immunostaining of xenograft tumor sections; assay type: in vivo, mouse; conditions: for proliferation (Ki67) in control tumors: MDA-MB-231 control tumors; for proliferation (Ki67) in control tumors / proliferation (Ki67) in Mena and Mena^INV tumors: vs vehicle; for proliferation (Ki67) in Mena and Mena^INV tumors: Mena- and Mena^INV-expressing tumors; for apoptosis (cleaved caspase-3, CC3): all three types of tumor
Excerpt: The effects of increased Mena/Mena^INV levels on taxol treatment in vitro (increased fractions of viable cells) and in vivo (resistance to anti-tumor growth effects) could arise from increased proliferation, decreased apoptosis or both. To evaluate the effects of Mena/Mena^INV on proliferation and cell death, tumor sections were stained with antibodies to Ki67 (a proliferation marker) and cleaved caspase-3 (apopotic marker). […] Therefore, elevated Mena/Mena^INV expression allows continued tumor growth in treated animals by blocking the anti-proliferative effects of taxol treatment.
(§1) Immunohistochemistry for Examples 16-22. Tumors dissected from NOD/SCID mice were fixed in 10% buffered formalin and embedded in paraffin. Tissue sections (5 μm thick) were deparaffinized followed by antigen retrieval using Citra Plus solution (Biogenex). After treatment with 3% H2O2, sections were blocked with serum, incubated with primary antibodies overnight at 4° C. and fluorescently labeled secondary antibodies at room temperature for 2 hours. Sections were stained using anti-MENA (1:500), biotinylated anti-MENA^INV (1:500), anti-CC3 (1:200), anti-Ki67 (1:200) and DAPI. Fluorochromes on secondary antibodies included AlexaFluor 488, 594 or 647 (Jackson Immunoresearch). Sections were mounted in Fluoromount mounting media and imaged at room temperature. Z series of images were taken on a DeltaVision microscope using Softworx acquisition, an Olympus 40×1.3 NA plan apo objective and a Photometrics CoolSNAP HQ camera. At least 10 fields were captured for each tumor, with at least 3 tumors per tumor group.
As such, proliferation and apoptosis was examined by quantifying the intensity of cells positive for Ki67 and CC3, respectively by immunostaining.

MDA-MB-231 cells = assay: Proliferation assay (cell count) with combinations of paclitaxel and MEKi; assay type: cell-based, human; conditions: 231-MENA and 231-MENA^INV cells
T47D cells = assay: Cell viability of T47D cells expressing ShCtrl or ShMENA after paclitaxel; assay type: cell-based, human; conditions: T47D ShMENA vs ShCtrl, 72 hours
Experimental: Cell Culture. MDA-MB-231 cells were purchased directly from the ATCC in June 2012, where cell lines are authenticated by short tandem repeat profiling. These cells were not reauthenticated by our lab and were cultured in DMEM with 10% FBS (Hyclone). Cell line generation and FACS were performed as previously described (32). […] SUM159 cells were obtained from Joan Brugge's lab at Harvard Medical School (January 2011) and were not reauthenticated in our lab. SUM159 cells were cultured according to the ATCC protocols. T47D cells were purchased at ATCC, where cell lines are authenticated by short tandem repeat profiling. They were cultured according to the manufacturer's protocol, and not reauthenticated in our lab. […]
MENA and MENA^INV are associated with increased survival during paclitaxel treatment in vitro. […] MENA and MENA^INV were determined to be widely expressed in all main breast cancer subtypes, as measured by mRNA from TCGA samples, as well as at the protein level by immunohistochemistry (FIGS. 28A, 28B, 28C), with slightly higher expression in patients with Her2+ breast cancer. […] Under the conditions we used, MENA11a co-migrates with the 80 kDa MENA, thus the intensity of the measured the 80 kDa MENA, detected with an antibody known to recognize all MENA isoforms, represents the total amount of 80 kDa MENA plus MENA11a in the cell lines that express both isoforms. […]

Mena, Mena^INV = assay: Mena and Mena^INV immunofluorescence in Control tumors from treated mice; assay type: in vivo, mouse; conditions: tissue sections of Control tumors from treated mice
Experimental: Taxol treatment induces increased Mena protein expression in vitro and in vivo. As high level of Mena or Mena^INV expression correlated with low response to Taxo, we hypothesized that Taxol treatment might affect Mena expression. […]. After 72 h of treatment with the drug, the expression level of Mena was 70% higher than in vehicle-treated cells.
as §1, with “Z series of images were taken on a DeltaVision microscope using Softworx acquisition, an Olympus 40×1.3 NA plan apo objective and a Photometrics CoolSNAP HQ camera. At least 10 fields were captured for each tumor, with at least 3 tumors per tumor group.” left out
Paclitaxel treatment selects for high MENA expression in vitro and in vivo. […] First, endogenous MENA expression by Western Blot in 5 breast cancer cell lines that were exposed to 100 nM of paclitaxel or a vehicle control were analyzed (FIG. 33A).

In the case of `CC(=O)O[C@H]1C(=O)[C@@]2(C)[C@H]([C@H](OC(=O)c3ccccc3)[C@]3(O)C[C@H](OC(=O)[C@H](O)[C@@H](NC(=O)c4ccccc4)c4ccccc4)C(C)=C1C3(C)C)[C@]1(OC(C)=O)CO[C@@H]1C[C@@H]2O` [paclitaxel], the “proliferation (Ki67) in control tumors” value [1] is reported as “decreased the amount of Ki67 staining”, the “proliferation (Ki67) in control tumors” value ([1]; listed as Taxol) is reported as “significantly decreased” and the “proliferation (Ki67) in Mena and Mena^INV tumors” value [1] is reported as “failed to decrease the numbers of Ki67-positive cells”. For the same compound, the “proliferation (Ki67) in Mena and Mena^INV tumors” value ([1]; listed as Taxol) was “failed to decrease proliferation”, the “apoptosis (cleaved caspase-3, CC3)” value [1] was “increase in cell death as marked by CC3 positive cells in all tumors” and the “apoptosis (cleaved caspase-3, CC3)” value ([1]; listed as Taxol) was “similar, significant apoptotic responses”. For the same compound, the “concentrations needed to obtain high levels of cell death relative to 231-Control cells” value (MDA-MB-231 cells) was “higher concentrations of each drug were needed”, the “sensitivity to paclitaxel after reducing all MENA isoform levels” value (T47D cells) was “more sensitive to paclitaxel” and the “Mena and Mena^INV levels in Control tumors compared to vehicle” value (Mena, Mena^INV) was “significant increases in total MENA levels”. The “Mena and Mena^INV levels in Control tumors compared to vehicle” value (Mena, Mena^INV; listed as Taxol) was “increase in expression of both global Mena levels and the Mena^INV isoform”.
